According to PubChem BioAssay (NCI):
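Method: 48-hour compound exposure of cells in 96-well plates, five concentrations, linear interpolation of endpoints. TGI is the concentration that stops growth completely.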

Legend:
Experiment in all cases: DTP human tumour cell line panel, 48 h
[1] = tested on: NCI-H23 lung
[2] = tested on: RPMI-8226 leukemia
[3] = tested on: DU-145 prostate
[4] = tested on: SF-539 CNS
[5] = tested on: COLO 205 colon
[6] = tested on: SK-MEL-28 melanoma
[7] = tested on: UACC-257 melanoma
[8] = tested on: M14 melanoma
[9] = tested on: CAKI-1 renal
[10] = tested on: 786-0 renal
[11] = tested on: HOP-62 NSCLC
[12] = tested on: HL-60(TB) leukemia
[13] = tested on: MDA-N
[14] = tested on: MOLT-4 leukemia
[15] = tested on: PC-3 prostate
[16] = tested on: A549 NSCLC
[17] = tested on: BT-549 breast
[18] = tested on: NCI/ADR-RES ovarian
[19] = tested on: OVCAR-4 ovarian
[20] = tested on: UO-31 renal
[21] = tested on: OVCAR-5 ovarian
[22] = tested on: UACC-62 melanoma
[23] = tested on: HS 578T breast
[24] = tested on: HCT-15 colon
[25] = tested on: SK-MEL-5 melanoma
[26] = tested on: MDA-MB-435
[27] = tested on: SK-MEL-2 melanoma
[28] = tested on: HT29 colon
[29] = tested on: IGROV1 ovarian
[30] = tested on: OVCAR-3 ovarian
[31] = tested on: TK-10 renal
[32] = tested on: NCI-H460 lung
[33] = tested on: T-47D breast
[34] = tested on: HCT-116 colon
[35] = tested on: SF-268 CNS
[36] = tested on: SR leukemia
[37] = tested on: SNB-75 CNS
[38] = tested on: KM12 colon
[39] = tested on: SNB-19 CNS
[40] = tested on: ACHN renal
[41] = tested on: SK-OV-3 ovarian
[42] = tested on: SN12C renal
[43] = tested on: HCC-2998 colon
[44] = tested on: OVCAR-8 ovarian
[45] = tested on: LOX IMVI melanoma
[46] = tested on: U251 CNS
[47] = tested on: NCI-H522 lung
[48] = tested on: SF-295 CNS
[49] = tested on: CCRF-CEM leukemia
[50] = tested on: NCI-H226 lung
[51] = tested on: SW-620 colon
[52] = tested on: MDA-MB-231 breast

## Nc1n[n+]([O-])c2cnccc2[n+]1[O-]
[1]
  TGI: > 100 µM
[2]
  TGI: > 100 µM
[3]
  TGI: > 100 µM
[4]
  TGI: > 100 µM
[5]
  TGI: > 100 µM
[6]
  TGI: > 100 µM
[7]
  TGI: 77.9 µM
[8]
  TGI: > 100 µM
[9]
  TGI: > 100 µM
[10]
  TGI: > 100 µM
[11]
  TGI: > 100 µM
[12]
  TGI: 47.7 µM
[13]
  TGI: 36.6 µM
[14]
  TGI: > 100 µM
[15]
  TGI: > 100 µM
[16]
  TGI: > 100 µM
[17]
  TGI: > 100 µM
[18]
  TGI: > 100 µM
[19]
  TGI: > 100 µM
[20]
  TGI: > 100 µM
[21]
  TGI: > 100 µM
[22]
  TGI: 84.9 µM
[23]
  TGI: > 100 µM
[24]
  TGI: > 100 µM
[25]
  TGI: 30 µM
[26]
  TGI: 38.5 µM
[27]
  TGI: > 100 µM
[28]
  TGI: > 100 µM
[29]
  TGI: > 100 µM
[30]
  TGI: > 100 µM
[31]
  TGI: > 100 µM
[32]
  TGI: > 100 µM
[33]
  TGI: > 100 µM
[34]
  TGI: > 100 µM
[35]
  TGI: > 100 µM
[36]
  TGI: > 100 µM
[37]
  TGI: > 100 µM
[38]
  TGI: > 100 µM
[39]
  TGI: > 100 µM
[40]
  TGI: > 100 µM
[41]
  TGI: > 100 µM
[42]
  TGI: > 100 µM
[43]
  TGI: > 100 µM
[44]
  TGI: > 100 µM
[45]
  TGI: > 100 µM
[46]
  TGI: > 100 µM
[47]
  TGI: > 100 µM
[48]
  TGI: > 100 µM
[49]
  TGI: > 100 µM
[50]
  TGI: > 100 µM
[51]
  TGI: > 100 µM
[52]
  TGI: > 100 µM
